Experimental findings from US12448400B2, “KRAS G12D modulating compounds” (priority 2023, dated 2025) are described below.

The nature of data set [1]: Mouse oral cassette pharmacokinetics. The class given is in vivo, male CD-1 mice. The following applies: male, CD-1, mouse, in vivo, po, 30 mg/kg. Put shortly:
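Male CD-1 mice (n=4) dosed orally by gavage at 30 mg-eq./kg per compound as cassettes of 1–3 compounds in 10 w/v % Captisol/50 mM citrate. Plasma sampled 0.5–24 h post dose, analysed by LC-MS/MS; Cmax and AUClast from non-compartmental analysis.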

The next data set has as its system GP2D (KRAS G12D) cells. Put plainly: 2D cell viability assay (CellTiter-Glo). The class given is cell-based. The following applies: 96 h; GP2D cells, 4 days, CellTiter-Glo luminescence; read-out: G12D 2D EC50. Put shortly: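 GP2D (KRAS G12D) cells, 1000/well in RPMI + 10% FBS, were plated onto compound (1:3 DMSO series) and grown 4 days at 37 °C, 5% CO2 in 2D. CellTiter-Glo luminescence was read; EC50 is the concentration giving 50% signal decrease, from sigmoidal fit.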
On the technique in general: In ATP-based viability assays light output follows the ATP content of the culture.

Data set [2] is described as follows: Rat oral pharmacokinetics. The following applies: male, Sprague Dawley, in vivo. Details: species or system Male Sprague Dawley rats. How it is done:
Rat Oral Pharmacokinetics
Test compounds were formulated in solution formulations (10 w/v % Sulfobutylether-p-cyclodextrin; 90% w/v % 50 mM Citrate Buffer) and administered orally to a group of three Male Sprague Dawley rats. The animals were fasted overnight prior to dose administration and up to four hours after dosing. The test articles were administrated by oral gavage at a dose volume of 5 mL-eq/kg.
Blood samples were collected at predose and 0.25, 0.5, 1, 2, 4, 6, 8, 12, 24, 48 and 72 hours post dose into K2EDTA tubes and stored on wet ice until processed. Whole blood was processed to plasma by centrifugation (3500 rpm for 10 minutes at 5° C.) within 30 minutes of collection. Plasma samples were placed in Micronic 96 well tubes and stored at −80° C. until transferred. Plasma concentration of the test compounds was determined by LC-MS/MS. Pharmacokinetic parameters were estimated using non-compartment model analysis. The maximum observed concentration (Cmax) and area under the curve from time of dosing to last measured concentration (AUClast) were calculated and reported.

The nature of data set [3]: Dog oral pharmacokinetics. More on the design: species or system Male Beagle dogs. Conditions: male, Beagle, in vivo. How it is done:
Dog Oral Pharmacokinetics
Test compounds were formulated in solution formulations (10% w/v % Sulfobutylether-p-cyclodextrin; 90% w/v % 50 mM Citrate Buffer) and administered orally at 5 or 10 mg-eq./kg to a group of three Male Beagle dogs. The animals were fasted overnight prior to dose administration and up to four hours after dosing. The test articles were administrated by oral gavage at a dose volume of 5 ml/kg.
Blood samples were collected into K2EDTA tubes at predose and 0.25, 0.5, 1, 2, 4, 6, 8, 12, 24 hours post dose, and once daily collection post 24 hours up to 168 hours. Whole blood were stored on wet ice and processed to plasma by centrifugation (3500 rpm for 10 minutes at 5° C.) within 1 hour of collection. Plasma samples were placed in Micronic 96 well tubes and stored at −80° C. until transferred. Plasma concentration of the test compounds was determined by LC-MS/MS. Pharmacokinetic parameters were estimated using non-compartment model analysis. The maximum observed concentration (Cmax) and area under the curve from time of dosing to last measured concentration (AUClast) were calculated and reported.

By EC50 is commonly meant the concentration giving half of the maximal effect.

In the case of `C#Cc1c(F)ccc2cc(N)cc(-c3nc4c5c(nc(OC[C@@]67CCCN6C[C@H](F)C7)nc5c3F)N3C[C@H]5CC[C@@H]([C@H]3CCC4)N5Cc3oc(=O)oc3C)c12` [Example 33, 4-(((6aR,7S,10R)-2-(3-amino-8-ethynyl-7-fluoronaphthalen-1-yl)-1-fluoro-13-(((2R,7aS)-2-fluorotetrahydro-1H-pyrrolizin-7a(5H)-yl)methoxy)-5,6,6a,7,8,9,10,11-octahydro-4H-3,11a,12,14,15-pentaaza-7,10-methanocyclohepta[4,5]cycloocta[1,2,3-de]naphthalen-15-yl)methyl)-5-methyl-1,3-dioxol-2-one], the “Mouse Parent AUC (nM * h)” value in data set [1] is listed as 1,500 nM * h. Moreover, the 50% effective concentration (EC50) in the data set with GP2D (KRAS G12D) cells stood at 0.71 nM. In addition, in data set [2] (15 mg/kg), the “Rat Parent % F” value was 3.3% and the “Rat Parent AUC” value was found to be 180 nM·h. Further, in data set [3] (10 mg/kg), the “Dog Parent % F” value is 11% and the “Dog Parent AUC (nM * h)” value is 2,200 nM * h.
Take `C#Cc1c(F)ccc2cc(N)cc(-c3nc4c5c(nc(OC[C@@]67CCCN6C[C@H](F)C7)nc5c3F)N3C[C@H]5CC[C@@H]([C@H]3CCC4)N5Cc3oc(=O)oc3CC)c12` [Example 34, 4-(((6aR,7S,10R)-2-(3-amino-8-ethynyl-7-fluoronaphthalen-1-yl)-1-fluoro-13-(((2R,7aS)-2-fluorotetrahydro-1H-pyrrolizin-7a(5H)-yl)methoxy)-5,6,6a,7,8,9,10,11-octahydro-4H-3,11a,12,14,15-pentaaza-7,10-methanocyclohepta[4,5]cycloocta[1,2,3-de]naphthalen-15-yl)methyl)-5-ethyl-1,3-dioxol-2-one]: the “Mouse Parent AUC (nM * h)” value in data set [1] is 1,300 nM * h. The EC50 with GP2D (KRAS G12D) cells was 0.4 nM. Further, in data set [2] (15 mg/kg), the “Rat Parent % F” value is given as 5% and the “Rat Parent AUC” value worked out at 270 nM·h. Moreover, in data set [3] (5 mg/kg), the “Dog Parent % F” value was found to be 12% and the “Dog Parent AUC (nM * h)” value is reported as 1,200 nM * h.
`C#Cc1c(F)ccc2cc(O)cc(-c3nc4c5c(nc(OC[C@@]67CCCN6[C@H](COC(C(F)(F)F)(C(F)(F)F)C(F)(F)F)CC7)nc5c3F)N3C[C@H]5CC[C@@H]([C@H]3CCC4)N5Cc3oc(=O)oc3C)c12` [Example 38, 4-(((6aR,7S,10R)-2-(8-ethynyl-7-fluoro-3-hydroxynaphthalen-1-yl)-1-fluoro-13-(((3S,7aS)-3-(((1,1,1,3,3,3-hexafluoro-2-(trifluoromethyl)propan-2-yl)oxy)methyl)tetrahydro-1H-pyrrolizin-7a(5H)-yl)methoxy)-5,6,6a,7,8,9,10,11-octahydro-4H-3,11a,12,14,15-pentaaza-7,10-methanocyclohepta[4,5]cycloocta[1,2,3-de]naphthalen-15-yl)methyl)-5-methyl-1,3-dioxol-2-one]: in data set [1], the “Mouse Parent AUC (nM * h)” value was 2,100 nM * h. For the same compound, the EC50 in the data set on GP2D (KRAS G12D) cells worked out at 0.25 nM. Besides, in data set [2] (7.5 mg/kg), the “Rat Parent % F” value came to 3% and the “Rat Parent AUC” value was 280 nM·h. In data set [3] (5 mg/kg), the “Dog Parent % F” value is given as 4.2% and the “Dog Parent AUC” value is 210 nM·h.
